Data on 18 molecules can be found in paper PMC6017481, “Design, Synthesis, and Biological Evaluation of 2-(Benzylamino-2-Hydroxyalkyl)Isoindoline-1,3-Diones Derivatives as Potential Disease-Modifying Multifunctional Anti-Alzheimer Agents” (Molecules : A Journal of Synthetic Chemistry and Natural …, 2018).

SMILES strings stand for the structures. Like-named read-outs stand apart in the source and are kept apart here. A value given as a limit tells only on which side of the number the result lay.

Assay [1] has as its target T1, eeAChE (AChE from Electrophorus electricus) (Electrophorus electricus, UniProt O42275).
T1 construct: purchased Sigma-Aldrich
Kind of assay: biochemical. The following applies: for inhibition at 10 µM: at 10 μM inhibitor concentration, mean ± SD, read-out: eeAChE % Inh.; for IC50: AChE from electric eel, mean ± SEM, at least three experiments.

Assay [2] deals with eqBuChE (BuChE from equine serum) (Equus caballus, UniProt P81908). As to the kind of experiment: biochemical. The following applies: for inhibition at 10 µM: at 10 μM inhibitor concentration, mean ± SD, read-out: eqBuChE % Inh.
Chain of eqBuChE (BuChE from equine serum) (P81908 whole entry): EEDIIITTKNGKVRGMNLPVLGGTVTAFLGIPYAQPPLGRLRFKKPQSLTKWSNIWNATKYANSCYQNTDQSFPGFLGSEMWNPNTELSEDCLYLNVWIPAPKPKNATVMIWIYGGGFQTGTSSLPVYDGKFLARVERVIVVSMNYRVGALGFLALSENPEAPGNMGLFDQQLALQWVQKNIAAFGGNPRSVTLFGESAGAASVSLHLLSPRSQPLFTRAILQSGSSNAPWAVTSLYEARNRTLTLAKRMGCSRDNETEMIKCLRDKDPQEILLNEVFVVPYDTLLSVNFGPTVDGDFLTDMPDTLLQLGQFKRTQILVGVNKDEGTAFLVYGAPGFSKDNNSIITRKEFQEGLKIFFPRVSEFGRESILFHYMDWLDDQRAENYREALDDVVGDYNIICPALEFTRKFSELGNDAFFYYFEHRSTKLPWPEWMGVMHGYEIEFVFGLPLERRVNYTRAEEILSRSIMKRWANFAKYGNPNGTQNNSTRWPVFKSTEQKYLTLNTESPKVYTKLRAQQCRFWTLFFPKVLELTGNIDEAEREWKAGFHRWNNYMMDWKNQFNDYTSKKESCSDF
For assay [3], the target named is T2, human recombinant BACE-1 (hBACE-1) (Homo sapiens, UniProt P56817).
T2 construct: purchased PanVera BACE-1 FRET Assay Kit, bought from Life Technologies Polska Sp. z o.o; host or cells: baculovirus expression
T2 sequence (P56817 46-501): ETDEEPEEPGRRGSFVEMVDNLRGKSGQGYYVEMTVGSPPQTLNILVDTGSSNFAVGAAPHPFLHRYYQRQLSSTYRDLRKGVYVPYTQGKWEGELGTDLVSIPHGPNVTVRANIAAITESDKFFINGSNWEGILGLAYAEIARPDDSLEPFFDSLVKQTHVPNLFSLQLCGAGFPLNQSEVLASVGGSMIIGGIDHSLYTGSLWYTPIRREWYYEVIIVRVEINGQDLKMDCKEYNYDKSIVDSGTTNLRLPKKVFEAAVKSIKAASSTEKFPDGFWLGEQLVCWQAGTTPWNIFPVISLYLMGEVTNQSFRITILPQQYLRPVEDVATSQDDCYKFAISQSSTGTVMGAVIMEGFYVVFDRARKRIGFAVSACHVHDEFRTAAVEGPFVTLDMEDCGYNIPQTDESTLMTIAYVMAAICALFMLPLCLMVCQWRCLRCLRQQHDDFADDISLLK
As to the kind of experiment: BACE-1 FRET assay (PanVera kit). Format: biochemical. The following applies: at 50 μM inhibitor concentration; mean ± SD; read-out: hBACE-1 % Inh.

Assay [4] has as its target T3, Aβ1–42 peptide aggregation (Homo sapiens, UniProt P05067).
T3 construct: Recombinant human HFIP-pretreated Aβ1–42 peptide; purchased Merck Millipore, Darmstadt, Germany
Kind of assay: Thioflavin T-based fluorometric assay of Aβ aggregation. Format: biochemical. The following applies: read-out: Aβ-Aggr. % Inh.

Assay [5] concerns human AChE. Also noted: method as in PMID 25621991. The following applies: cited from earlier work.
Assay [6] concerns Aβ aggregation. Set-up: method as in PMID 25621991. To be noted: at 10 μM; cited from earlier work.
In assay [7] the test system is Aβ toxicity. Also noted: method as in PMID 25621991. To be noted: at 1 μM and 3 μM; cited from earlier work.
Where [8] appears, read: at 10 μM inhibitor concentration, 1.5 μM Aβ1–42, mean ± SD.

T1 sequence (O42275 24-633): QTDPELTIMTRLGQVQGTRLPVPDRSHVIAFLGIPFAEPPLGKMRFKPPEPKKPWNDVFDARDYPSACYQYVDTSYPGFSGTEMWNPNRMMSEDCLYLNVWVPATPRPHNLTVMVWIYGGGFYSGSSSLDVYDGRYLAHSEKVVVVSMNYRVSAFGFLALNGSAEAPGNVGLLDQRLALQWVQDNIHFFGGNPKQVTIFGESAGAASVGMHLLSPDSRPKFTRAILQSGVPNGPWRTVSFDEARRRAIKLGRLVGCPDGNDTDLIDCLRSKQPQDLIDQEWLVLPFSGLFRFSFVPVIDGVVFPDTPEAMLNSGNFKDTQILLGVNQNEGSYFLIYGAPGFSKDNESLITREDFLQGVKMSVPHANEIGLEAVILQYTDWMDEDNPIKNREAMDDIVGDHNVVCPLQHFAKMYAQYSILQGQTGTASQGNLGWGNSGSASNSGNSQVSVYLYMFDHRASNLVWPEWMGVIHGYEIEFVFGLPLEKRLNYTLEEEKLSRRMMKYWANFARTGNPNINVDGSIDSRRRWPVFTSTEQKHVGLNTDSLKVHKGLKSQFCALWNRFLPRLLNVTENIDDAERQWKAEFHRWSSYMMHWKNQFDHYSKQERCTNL
T3 sequence (P05067 672-713 limits assumed): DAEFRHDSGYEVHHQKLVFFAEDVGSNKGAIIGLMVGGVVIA

`O=C1c2ccccc2C(=O)N1CC(O)CNCc1ccccc1` (centres unmarked) [Compound 1, 2-(3-(Benzylamino)-2-hydroxypropyl)isoindoline-1,3-dione]: the inhibition at 10 µM in assay [1] was 11.5%; in assay [2] it was 14.1%; in assay [4] (setting [8]), < 10%. Moreover, in assay [3], the inhibition at 50 µM stood at 37.3%.

Take `O=C1c2ccccc2C(=O)N1CC(O)CNCc1ccccc1F` (centres unmarked) [Compound 2, 2-(3-((2-Fluorobenzyl)amino)-2-hydroxypropyl)isoindoline-1,3-dione]: the figures for the inhibition at 10 µM in assay [1], in assay [2] and in assay [4] (setting [8]) were 28.1%, 19.5% and 21.1%, respectively. In addition, in assay [3], the inhibition at 50 µM was determined as 39.6%.

Take `O=C1c2ccccc2C(=O)N1CC(O)CNCc1ccccc1C(F)(F)F` (centres unmarked) [Compound 3, 2-(2-Hydroxy-3-((2-(trifluoromethyl)benzyl)amino)propyl)isoindoline-1,3-dione]: the inhibition at 10 µM in assay [1] is 11.8%; in assay [2], < 10%; in assay [4] (setting [8]) it was < 10%. Besides, in assay [3], the inhibition at 50 µM came to 41.8%.

For the molecule `O=C1c2ccccc2C(=O)N1CC(O)CNCc1cccc(Cl)c1` (centres unmarked) [Compound 4, 2-(3-((3-Chlorobenzyl)amino)-2-hydroxypropyl)isoindoline-1,3-dione], the inhibition at 10 µM in assay [1] is < 10%; in assay [2], 24.1%; in assay [4] (setting [8]), < 10%. For the same molecule, the inhibition at 50 µM in assay [3] stood at 34.1%.

For orientation: IC50 means the concentration at which inhibition is half-maximal. `COc1ccccc1CNCC(O)CN1C(=O)c2ccccc2C1=O` (centres unmarked) [Compound 5, 2-(2-Hydroxy-3-((2-methoxybenzyl)amino)propyl)isoindoline-1,3-dione]: the inhibition at 10 µM in assay [1] is < 10%; in assay [4] (setting [8]) it was 19.9%. In addition, in assay [2] (BuChE from horse serum, mean ± SEM, at least three experiments), the IC50 amounted to 7860 ± 290 nM. Besides, the inhibition at 50 µM in assay [3] came to 39.2%.

Take `Cc1ccc(CNCC(O)CN2C(=O)c3ccccc3C2=O)cc1` (centres unmarked) [Compound 6, 2-(2-Hydroxy-3-((4-methylbenzyl)amino)propyl)isoindoline-1,3-dione]: the inhibition at 10 µM in assay [1] was < 10%; in assay [2] it was 11.6%; in assay [4] (setting [8]), < 10%. Further, the inhibition at 50 µM in assay [3] worked out at 45%.

Take `COc1ccc(CNCC(O)CN2C(=O)c3ccccc3C2=O)cc1` (centres unmarked) [Compound 7, 2-(2-Hydroxy-3-((4-methoxybenzyl)amino)propyl)isoindoline-1,3-dione]: the inhibition at 10 µM in assay [1] is < 10%; in assay [2], 19.1%; in assay [4] (setting [8]), < 10%. Further, in assay [3], the inhibition at 50 µM came out at 35.1%.

On to `O=C1c2ccccc2C(=O)N1CC(O)CNCc1ccc(Cl)cc1Cl` (centres unmarked) [Compound 8, 2-(3-((2,4-Dichlorobenzyl)amino)-2-hydroxypropyl)isoindoline-1,3-dione], for which the inhibition at 10 µM was < 10% in assay [1], 21.7% in assay [2] and < 10% in assay [4] (setting [8]). Also, in assay [3], the inhibition at 50 µM came out at 37.2%.

As to `O=C1c2ccccc2C(=O)N1CCC(O)CNCc1ccccc1` (centres unmarked) [Compound 9, 2-(4-(Benzylamino)-3-hydroxybutyl)isoindoline-1,3-dione], the inhibition at 10 µM in assay [1], in assay [2] and in assay [4] (setting [8]) was < 10% each time. In addition, the inhibition at 50 µM in assay [3] is < 10%.

Regarding `COc1ccccc1CNCC(O)CCN1C(=O)c2ccccc2C1=O` (centres unmarked) [Compound 10, 2-(3-Hydroxy-4-((2-methoxybenzyl)amino)butyl)isoindoline-1,3-dione], the inhibition at 10 µM in assay [1] was 32.7%; in assay [2] it was 17.8%; in assay [4] (setting [8]), < 10%. In addition, the inhibition at 50 µM in assay [3] was found to be 24.4%.

`COc1ccc(CNCC(O)CCN2C(=O)c3ccccc3C2=O)cc1` (centres unmarked) [Compound 11, 2-(3-Hydroxy-4-((4-methoxybenzyl)amino)butyl)isoindoline-1,3-dione]: the inhibition at 10 µM in assay [1], in assay [2] and in assay [4] (setting [8]) was < 10% each time. Besides, the inhibition at 50 µM in assay [3] was found to be 34.8%.

In assay [1], `O=C1c2ccccc2C(=O)N1CCCC(O)CNCc1ccccc1` (centres unmarked) [Compound 12, 2-(5-(Benzylamino)-4-hydroxypentyl)isoindoline-1,3-dione] gave an IC50 of 3320 ± 150 nM. Moreover, the inhibition at 10 µM in assay [2] was 14.1%; in assay [4] (setting [8]), 24.9%. Further, in assay [3], the inhibition at 50 µM amounted to 43.7%.

`COc1ccccc1CNCC(O)CCCN1C(=O)c2ccccc2C1=O` (centres unmarked) [Compound 13, 2-(4-Hydroxy-5-((2-methoxybenzyl)amino)pentyl)isoindoline-1,3-dione]: 11100 ± 490 nM corresponded to half-maximal inhibition in assay [1] (IC50). The values for the inhibition at 10 µM in assay [2] and in assay [4] (setting [8]) were 26.2% and < 10%, respectively. Also, the inhibition at 50 µM in assay [3] amounted to 37.1%.

For `O=C1c2ccccc2C(=O)N1CCCCC(O)CNCc1ccccc1` (centres unmarked) [Compound 14, 2-(6-(Benzylamino)-5-hydroxyhexyl)isoindoline-1,3-dione], it took 2130 ± 70 nM to reach half-maximal inhibition in assay [1] (IC50). For the same molecule, the inhibition at 10 µM was 36% in assay [2] and < 10% in assay [4] (setting [8]). In addition, the inhibition at 50 µM in assay [3] was 42.1%.

`COc1ccccc1CNCC(O)CCCCN1C(=O)c2ccccc2C1=O` (centres unmarked) [Compound 15, 2-(5-Hydroxy-6-((2-methoxybenzyl)amino)hexyl)isoindoline-1,3-dione]: in assay [1], the IC50 was 1950 ± 60 nM. Also, the inhibition at 10 µM in assay [2] was 36%; in assay [4] (setting [8]) it was < 10%. Moreover, the inhibition at 50 µM in assay [3] was found to be 15.7%.

`O=C1c2ccccc2C(=O)N1CCCCCNCc1ccc(F)cc1` [Compound III, 2-(5-(4-flurobenzylamino)pentyl)isoindoline-1,3-dione]: the IC50 in assay [5] was 268 nM. In assay [6], the anti-Aβ aggregation activity is recorded as 66%. Also, in assay [7], the “neuroprotective effect against Aβ toxicity” value was “neuroprotective effect”.

With `COc1cc2c(cc1OC)C(=O)C(CC1CCN(Cc3ccccc3)CC1)C2` (centres unmarked) [Donepezil, reference compound], in assay [4], the inhibition at 10 µM was 13.8%.

On to `Oc1ccc(/C=C/c2cc(O)cc(O)c2)cc1` [Resveratrol, reference compound], for which the inhibition at 10 µM in assay [4] (setting [8]) stood at 78.5%.
